Results published in US20110257161A1 (priority 2008, published 2011).
Counter-ions that a name gives are not always drawn.

Biological target: α7-subtype of nicotinic receptors (Rattus norvegicus, UniProt Q05941)
Experiment: biochemical
Format: binding

Chain of α7-subtype of nicotinic receptors (Q05941 23-502): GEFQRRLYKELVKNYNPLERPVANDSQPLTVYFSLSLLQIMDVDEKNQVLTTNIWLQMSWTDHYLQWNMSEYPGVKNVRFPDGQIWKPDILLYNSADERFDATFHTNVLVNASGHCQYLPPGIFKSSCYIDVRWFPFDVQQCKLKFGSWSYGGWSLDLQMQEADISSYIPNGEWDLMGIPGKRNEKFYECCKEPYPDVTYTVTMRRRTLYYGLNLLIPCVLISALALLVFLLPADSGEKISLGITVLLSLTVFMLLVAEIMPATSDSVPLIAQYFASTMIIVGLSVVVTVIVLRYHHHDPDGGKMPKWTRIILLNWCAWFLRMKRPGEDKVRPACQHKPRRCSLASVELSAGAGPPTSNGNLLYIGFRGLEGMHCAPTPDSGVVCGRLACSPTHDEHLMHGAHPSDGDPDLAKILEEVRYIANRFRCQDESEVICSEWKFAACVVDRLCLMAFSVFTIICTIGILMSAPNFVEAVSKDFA

## O=c1c2ccccc2nnn1-c1ccc(N2CCN3CCC2CC3)cc1 [Compound D1, 3-[4-(1,4-Diaza-bicyclo[3.2.2]non-4-yl)-phenyl]-3H-benzo[d][1,2,3]triazin-4-one fumaric acid salt]
  IC50: 22 nM

## O=c1c2ccccc2ncn1-c1ccc(N2CCN3CCC2CC3)cc1 [Compound E1, 3-[4-(1,4-Diaza-bicyclo[3.2.2]non-4-yl)-phenyl]-3H-quinazolin-4-one fumaric acid salt]
  IC50: 130 nM
